Assay results from patent US20250099420A1, “SMALL MOLECULE MODULATORS OF GPR139 COMPLEX” (University of Florida Research Foundation, Incorporated, priority 2022, published 2025).
Like-named read-outs stand apart in the source and are kept apart here.

Key:
GPR139 = biological target: T1, GPR139 (Homo sapiens, UniProt Q6DWJ6); assay: GPR139 Agonist titration / agonist counterscreen assay (calcium detection, HEK-GPR139 cells); assay type: cell-based; parameters: expressed in transfected cells; host or cells: HEK Aequorin cells, Maxcyte transient transfection; settings: GPR139 Agonist Activity; for Averaged Max % Response (±St. Dev.): activity relative to known control; for EC50: read-out: EC50
T1 sequence (Q6DWJ6 1-353): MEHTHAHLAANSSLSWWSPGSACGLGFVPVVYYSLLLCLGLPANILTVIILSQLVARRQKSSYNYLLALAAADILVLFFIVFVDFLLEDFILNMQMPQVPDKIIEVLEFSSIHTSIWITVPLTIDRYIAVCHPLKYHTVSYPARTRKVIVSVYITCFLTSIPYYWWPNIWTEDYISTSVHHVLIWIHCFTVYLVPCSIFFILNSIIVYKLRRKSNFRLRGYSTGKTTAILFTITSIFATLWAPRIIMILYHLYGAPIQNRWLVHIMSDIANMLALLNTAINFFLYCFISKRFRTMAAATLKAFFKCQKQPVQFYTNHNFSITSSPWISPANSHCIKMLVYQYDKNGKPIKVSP
Procedure: GPR activity was assessed using a calcium detection assay. […] Negative control samples were treated with DMSO. […] Intracellular calcium was measured using Calcium 5.

parental HEK cells = assay: HEK parental Agonist Counterscreen Assay (non-transfected cells); assay type: cell-based; settings: for Averaged Max % Response (±St. Dev.): activity relative to known control
Text: The high control for the agonist counterscreen was Forskolin not acetylcholine.

[1] = values printed in E-notation without unit
[2] = HEK Agonist Activity section of Table 4 (parental HEK counterscreen)
[3] = Homo sapiens, HEK293, HEK Agonist Activity section of Table 4 (parental HEK counterscreen)
[4] = Homo sapiens, HEK293, HEK Agonist Activity, parental non-transfected HEK cells

Averaged Max % Response (±St. Dev.) (GPR139) [%] | Lipophilic Efficiency (logD) (GPR139; based on logD) | Lipophilic Efficiency (logP) (GPR139; based on logP) | Hill Slope (GPR139; fitted dose-response curve) | Efficiency Ligand (GPR139; ligand efficiency) | EC50 (GPR139; [1]) [nM] | Lipophilic Efficiency (logD) (parental HEK cells; HEK Agonist Activity section) | Lipophilic Efficiency (logP) (parental HEK cells; HEK Agonist Activity section) | Compound | EC50 (parental HEK cells; [2]) [nM] | Averaged Max % Response (±St. Dev.) (parental HEK cells; HEK Agonist Activity section) [%] | EC50 (parental HEK cells; [3]) [nM] | also measured
99.13 ± 2.27 | 2.51 | 2.51 | 1.05 | 0.34 | 191 | 0.64 | 0.64 | COc1ccc(CCNC(=O)c2cncc(-c3csc4ccccc34)c2)cc1 [SR-01000654639] | > 14000 | 1.22 ± 5.69 |  | 
68.48 ± 7.96 |  |  |  |  |  | 1.72 | 1.67 | CCn1c2ccccc2c2cc(C3C(C#N)=C(N)Oc4n[nH]c(C)c43)ccc21 (centres unmarked) [SR-01000465824] | > 11800 | −11.98 ± 3.62 |  | Efficiency Ligand (GPR139): 0.27; Hill Slope (GPR139): 1.13; Lipophilic Efficiency (logD) (GPR139): 2.21; Lipophilic Efficiency (logP) (GPR139): 2.16; EC50 (GPR139; HEK-GPR139 cells): 3800 nM
103.91 ± 10.30 | 4.04 | 3.99 | 0.77 | 0.36 | 231 | 2.25 | 2.21 | COc1ccc(C(=O)NNC(=O)COc2ccc(Cl)cc2Cl)cc1OC [SR-01000357814] |  | 7.60 ± 11.41 | > 14100 | 
91.99 ± 13.68 | 2.98 | 2.96 | 1.03 | 0.41 | 100 | 0.98 | 0.95 | Cc1ccccc1C(=O)NNC(=O)C(C)Oc1ccc(Cl)cc1Cl (centres unmarked) [SR-01000410694] |  | 10.08 ± 3.68 | > 10200 | 
118.34 ± 15.06 | 3.96 | 3.96 | 0.66 | 0.34 | 96.7 | 1.79 | 1.79 | CN(C(=O)CN1C(=O)NC(C)(c2ccc3ccccc3c2)C1=O)C1CCCCC1 (centres unmarked) [SR-01000048373] | > 14300 | 9.79 ± 7.30 |  | 
95.58 ± 3.98 | 3.16 | 3.16 | 1.02 | 0.36 | 68.1 | 1.23 | 1.23 | COCC(=O)Oc1c(Sc2c(F)c(F)c(F)c(F)c2F)c(C)nn1C(C)(C)C [SR-01000906953] | 5700 | 192.43 ± 25.16 |  | Hill Slope (parental HEK cells; HEK Agonist Activity section): 9.35
95.57 ± 19.71 | 5.19 | 5.19 | 1.18 | 0.45 | 16.1 |  |  | CC1CCC(NC(=O)CCC(=O)N2CCSc3ccccc32)CC1 (centres unmarked) [SR-01000159110] |  |  |  | Lipophilic Efficiency (logD) (parental HEK cells; HEK Agonist Activity): 2.25; Lipophilic Efficiency (logP) (parental HEK cells; HEK Agonist Activity): 2.25; Averaged Max % Response (±St. Dev.) (parental HEK cells; HEK Agonist Activity): 3.44 ± 10.60%; EC50 (parental HEK cells; [4]): > 14100 nM
81.02 ± 6.69 |  |  |  |  |  | 2.37 | 2.37 | CCCc1nn(CC(=O)NCc2nc3ccccc3n2C)c(=O)c2cc3ccsc3n12 [SR-01000336681] | > 14100 | 4.99 ± 7.59 |  | Efficiency Ligand (GPR139): 0.26; Hill Slope (GPR139): 1.92; Lipophilic Efficiency (logD) (GPR139): 3.33; Lipophilic Efficiency (logP) (GPR139): 3.33; EC50 (GPR139; HEK-GPR139 cells): 1600 nM
99.03 ± 14.80 | 3.43 | 3.43 | 1.55 | 0.32 | 201 | 1.59 | 1.59 | O=C(NCc1csc(-c2cccs2)n1)C1CC(Cc2ccc3c(c2)OCO3)=NO1 (centres unmarked) [SR-01000187428] |  | 6.44 ± 5.26 | > 14100 | 
100.68 ± 11.72 | 3.60 | 3.60 | 0.73 | 0.43 | 160 | 1.65 | 1.65 | CCCc1cc(=O)n2[nH]c(NCc3ccccc3F)nc2n1 [SR-01000100493] | > 14100 | 4.54 ± 3.12 |  | 
108.22 ± 25.63 | 4.61 | 4.61 | 0.51 | 0.35 | 48.1 | 2.09 | 2.09 | CC1CC(C)CN(C(=O)C2C3C=CC4(CN(Cc5ccccc5Cl)C(=O)C24)O3)C1 (centres unmarked) [SR-01000583192] | > 15900 | 13.45 ± 13.24 |  | 
105.59 ± 5.95 | 3.66 | 3.66 | 0.45 | 0.37 | 60.2 | 1.29 | 1.29 | O=C(CCc1nc2cccnc2n1Cc1cccs1)NCCc1cccs1 [SR-01000077903] |  | 1.27 ± 2.74 | > 14100 | 
117.24 ± 4.32 | 3.74 | 3.74 | 0.61 | 0.36 | 40.5 |  |  | CC1(c2ccc3ccccc3c2)NC(=O)N(CC(=O)Nc2ccccc2Cl)C1=O (centres unmarked) [SR-01000066950] |  |  |  | Lipophilic Efficiency (logD) (parental HEK cells; HEK Agonist Activity): 1.21; Lipophilic Efficiency (logP) (parental HEK cells; HEK Agonist Activity): 1.21; Averaged Max % Response (±St. Dev.) (parental HEK cells; HEK Agonist Activity): 2.95 ± 8.11%; EC50 (parental HEK cells; [4]): > 13800 nM
90.74 ± 17.54 |  |  |  |  |  | 1.59 | 1.59 | O=C(CCc1ccccc1)NNC(=O)C12CC3CC(CC(C3)C1)C2 [SR-01000314474] |  | −0.07 ± 5.01 | > 14100 | Efficiency Ligand (GPR139): 0.37; Hill Slope (GPR139): 2.04; Lipophilic Efficiency (logD) (GPR139): 3.13; Lipophilic Efficiency (logP) (GPR139): 3.13; EC50 (GPR139; HEK-GPR139 cells): 401 nM
89.43 ± 6.88 | 3.97 | 3.96 | 0.82 | 0.36 | 22 |  |  | O=C(NCC1Cc2cccc(-c3ccccn3)c2O1)c1ccc(-n2cccn2)cc1 (centres unmarked) [SR-01000183606] |  |  |  | Lipophilic Efficiency (logD) (parental HEK cells; HEK Agonist Activity): 1.16; Lipophilic Efficiency (logP) (parental HEK cells; HEK Agonist Activity): 1.16; Averaged Max % Response (±St. Dev.) (parental HEK cells; HEK Agonist Activity): −9.57 ± 3.95%; EC50 (parental HEK cells; HEK Agonist Activity, parental non-transfected HEK cells): > 14100 nM
112.23 ± 25.44 | 4.43 | 4.43 | 0.32 | 0.50 | 6.2 |  |  | COc1ccc(CCNC(=O)COc2ccc(Cl)cc2Cl)cc1 [SR-01000412367] |  |  |  | Lipophilic Efficiency (logD) (parental HEK cells; HEK Agonist Activity): 1.11; Lipophilic Efficiency (logP) (parental HEK cells; HEK Agonist Activity): 1.11; Averaged Max % Response (±St. Dev.) (parental HEK cells; HEK Agonist Activity): 5.28 ± 6.57%; EC50 (parental HEK cells; [4]): > 13000 nM
